Measured values published in patent US11241433B2, “Treatment or prevention of autism disorders using menthol, linalool and/or icilin” (Société des Produits Nestlé S.A., priority 2013, dated 2022).

Assays:
Type in all cases: cell-based
[1] = test system: Lateral Amygdala glutamatergic neuron (in a mouse brain slice); experiment: whole cell, current clamp recordings, square pulse of 2.5 s at high depolarization; conditions: square pulse of 2.5 s at high depolarization of membrane potential (approximately -30 mV); relative to control; FIG. 2
Excerpt: (§1) A mouse brain slice was used to study the effects of Menthol, Linalool and Icilin. The amygdaloid complex is located within the medial temporal lobe in neocortex and amygdala. The lateral and basolateral nuclei of the amygdaloid complex receive sensory information from cortical and thalamic structures, process the information, and then transmit the information, either directly or through the basal nucleus, to the central nucleus. For experimental analysis of neural activity, synaptic responses from the basolateral complex can be evoked electrically using electrodes, and the action potentials can be measured.
A square pulse of 2.5 s was applied at high depolarization of membrane potential (approximately −30 mV).

neocortex = experiment: action potential measurements in mouse brain slice, neocortex; conditions: for amount of current required to trigger an action potential / threshold to trigger an action potential: neocortex
Excerpt: as §1

[2] = test system: Lateral Amygdala glutamatergic neuron (in a mouse brain slice); experiment: whole cell, current clamp recordings of spontaneous bursts with increasing concentration of gabazine
Excerpt: as §1

Row | SMILES | inactivation of the sodium fast channels / further neural firing [1] | action potentials at higher stimulation levels (neocortex) | amount of current required to trigger an action potential (neocortex) | threshold to trigger an action potential (neocortex) | spontaneous action potential bursts ([2]; Menthol 250 μM applied extracellularly 10 minutes previous to and during increasing concentrations of gabazine, FIG. 5 compared to FIG. 3) | spontaneous action potential bursts ([2]; increasing concentrations of gabazine alone, applied extracellularly, recordings of 5 minutes each, 10 minute washout, FIG. 3)
1 | O=C1NC(c2cccc([N+](=O)[O-])c2)=CCN1c1ccccc1O [Icilin] | inactivation of the sodium fast channels happens sooner relative to control | abort action potentials at higher stimulation levels | increase the amount of current required to trigger an action potential | increase the threshold to trigger an action potential |  | 
2 | C=CC(C)(O)CCC=C(C)C (centres unmarked) [Linalool] | inactivation of the sodium fast channels happens sooner relative to control | abort action potentials at higher stimulation levels | increase the amount of current required to trigger an action potential | increase the threshold to trigger an action potential |  | 
3 | CC1CCC(C(C)C)C(O)C1 (centres unmarked) [Menthol] | inactivation of the sodium fast channels happens sooner relative to control | abort action potentials at higher stimulation levels | increase the amount of current required to trigger an action potential | increase the threshold to trigger an action potential | complete absence or a strongly decreased presence of spontaneous bursts | 
4 | COc1ccc(-c2ccc(=N)n(CCCC(=O)O)n2)cc1 [gabazine] |  |  |  |  |  | neurons spontaneously present action potential bursts
